Structures are written as SMILES. “And” between values parts separate entries of the source, which are not always exact repeats. Equal values may be shown once.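 Growth conditions: 96-well plates. Treatment: test compound, 48 hours, 5 concentrations. Analysis: linear interpolation between bracketing concentrations; unreached endpoints set to highest concentration. The concentration for 50% growth inhibition is given as GI50. TGI: concentration producing complete growth inhibition.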

What all share (assay): NCI anticancer screen, dose series, 48 h
For experiment [1], the system named is A498 renal.
Experiment [2] has as its system HL-60(TB) leukemia.
For experiment [3], the system named is SW-620 colon.
The subject of experiment [4] is SK-MEL-28 melanoma.
For experiment [5], the system named is CCRF-CEM leukemia.
For experiment [6], the system named is HS 578T breast.
Experiment [7] relates to BT-549 breast.
Experiment [8] has as its system SR leukemia.
In experiment [9] the test system is HT29 colon.
The subject of experiment [10] is MDA-MB-231 breast.

In the case of `O=CN/C=C/c1cccc(O)c1`, the TGI in experiment [1] is greater than 76.8 µM; in [2] it was greater than 100 µM; in [3], 98.8 µM; in experiment [4], greater than 100 µM; in experiment [5] it was greater than 100 µM; in [6] it was greater than 95.1 µM. In addition, the TGI in experiment [7] was 58.5 µM; in experiment [8] it was greater than 75.2 µM; in experiment [9], 74.8 µM; in [10] it was 99.2 µM.

Regarding `COc1cccc2c1C(=O)c1c(O)c3c(c(O)c1C2=O)CC(O)(C(O)CO)CC3OC1CC(N2CCOCC2)C(O)C(C)O1` (stereo unspecified), the GI50 in [1] is 0.0139 µM; in experiment [2], 0.0352 µM and 0.0251 µM; in [3], 0.0138 µM; in experiment [4], 0.0221 µM. Also, the TGI in experiment [2] was 0.195 µM; in experiment [4], 0.0168 µM and 0.0592 µM; in [5], 0.221 µM; in [6] it was 0.214 µM; in experiment [7] it was 0.206 µM; in experiment [10] it was 0.243 µM.

On to `COc1cc(Nc2c(C#N)cnc3cc(OCCCN4CCN(C)CC4)c(OC)cc23)c(Cl)cc1Cl`, for which the GI50 in experiment [1] was 0.586 µM; in experiment [2] it was 1.59 µM; in experiment [3] it was 3.26 µM; in experiment [4] it was 2.13 µM; in experiment [5], 1.76 µM; in experiment [6] it was 1.6 µM. Further, the GI50 in experiment [7] was 6.78 µM; in experiment [8], 1.35 µM; in experiment [9] it was 0.689 µM; in experiment [10], 2.76 µM. Besides, the TGI in experiment [1] turned out to be 2.22 µM; in experiment [2], 3.63 µM; in [3] it was 11.4 µM; in [4] it was 5.08 µM; in [5], 5.74 µM; in experiment [6], 26 µM. The TGI came to 18.3 µM in experiment [7], 4.51 µM in experiment [8], 5.38 µM in experiment [9] and 7.14 µM in [10].

Consider `c1ccc(CN2CCC3(CC2)SSC2(CCN(Cc4ccccc4)CC2)S3)cc1`, for which the TGI in [2], in [3], in [4], in [5], in [6] and in experiment [7] was greater than 100 µM throughout. Also, the TGI in experiment [8] was greater than 100 µM; in [9] it was 43.5 µM; in experiment [10], greater than 100 µM.

Consider `C#CC1(O)C(COP(=O)(O)OC(COCCCCCCCCCCCCCCCCCC)COP(=O)(O)OCC2OC(n3cc(F)c(=O)[nH]c3=O)CC2O)OC(n2ccc(N)nc2=O)C1O` (stereo unspecified), for which the GI50 in [1] was 0.389 µM and 0.189 µM; in experiment [2] it was 0.0952 µM and 0.21 µM; in experiment [4], 0.618 µM and 1.49 µM; in experiment [5], 0.115 µM and 0.965 µM; in experiment [6] it was 2.12 µM and 1.03 µM. Besides, the TGI in experiment [1] was 14 µM and 5.12 µM; in [2] it was 17.9 µM and 11.7 µM; in experiment [3] it was > 100 µM and 48.1 µM; in [4], 21.8 µM and 28.8 µM; in experiment [5] it was 15.3 µM and > 70.6 µM; in experiment [6], 44.8 µM and 17.2 µM. For the same compound, the TGI is > 42.8 µM and 8.71 µM in experiment [7]; > 100 µM and 41.5 µM in experiment [9]; 26.7 µM and 31.1 µM in experiment [10].

For `Cc1ccc(-c2nc(C#N)c(S(=O)(=O)n3nc(C)cc3N)o2)cc1`, the GI50 in experiment [1] was 16.3 µM; in [2] it was 2 µM; in experiment [4], 12.7 µM; in experiment [5] it was 2.55 µM; in experiment [6], 21.3 µM; in experiment [7], 3.85 µM. Also, the figures for the GI50 in experiment [8], in [9] and in experiment [10] were 2.06 µM, 2.37 µM and 2.42 µM, respectively. For the same compound, the TGI in [1] was found to be 32.9 µM; in [2], 5.42 µM; in experiment [4] it was 25.6 µM; in [5], 7.83 µM; in experiment [6] it was 58.1 µM; in experiment [7], 14.8 µM. In addition, the results for the TGI in [8], in [9] and in experiment [10] were 6.91 µM, 5.45 µM and 6.31 µM, respectively.

In the case of `CC(=O)C(=Cc1ccc(C=C(C(C)=O)C(C)=O)cc1)C(C)=O`, the TGI in [1] came to 9.03 µM; in experiment [2] it was 4.52 µM; in experiment [3], 1.83 µM; in experiment [4], 4.48 µM; in experiment [6], 22.6 µM; in experiment [7], 4.6 µM. The TGI is 3.05 µM in [9] and 4.4 µM in [10].

As to `COc1cc(NC(C)CCCN)c2ncccc2c1` (stereo unspecified), the GI50 in experiment [1] was 30.6 µM and 76.7 µM; in experiment [4], 22.1 µM and 74 µM. Moreover, the TGI is greater than 100 µM in [1]; > 37.3 µM and 28.9 µM in [2]; greater than 100 µM in [3]; 47.5 µM and > 100 µM in [4]; greater than 100 µM in experiment [5]; greater than 100 µM in experiment [6]. Further, the values for the TGI in [7], in experiment [9] and in experiment [10] were greater than 100 µM, greater than 95.4 µM and greater than 100 µM, respectively.

Regarding `NC(=O)c1ccc(I)c(N=O)c1`, the GI50 in [2] was 29 µM; in experiment [3], 18.3 µM; in [4], 46.9 µM; in [5], 40.5 µM; in experiment [6] it was 38.5 µM; in experiment [7], 40.3 µM. Besides, the GI50 in [8] was 40.6 µM; in experiment [9] it was 20.6 µM; in experiment [10], 35.5 µM. In addition, the TGI was 85.5 µM in [2]; 33.3 µM in [3]; greater than 100 µM in experiment [4]; greater than 100 µM in experiment [5]; greater than 100 µM in experiment [6]; greater than 100 µM in experiment [7]. The values for the TGI in experiment [8], in experiment [9] and in experiment [10] were greater than 100 µM, 39.5 µM and greater than 100 µM, respectively.

`Cc1ccc(C(CC(=O)c2ccccc2)C2C(=O)NC(=O)NC2=O)cc1` (stereo unspecified): the GI50 in experiment [1], in experiment [2], in experiment [3], in experiment [4], in experiment [5] and in [6] was greater than 100 µM each time. Besides, the GI50 in experiment [7], in experiment [9] and in experiment [10] was greater than 100 µM throughout. Further, the TGI in [1], in [2], in [3], in experiment [4], in experiment [5] and in experiment [6] was greater than 100 µM each time. Besides, the TGI in [7], in experiment [9] and in experiment [10] was greater than 100 µM throughout.

The record behind these values is PubChem BioAssay (NCI).
